Source: patent US20250289816A1, “SALTS AND PHARMACUTICAL COMPOSITIONS THEREOF FOR THE TREATMENT OF INFLAMMATORY DISORDERS” (Alfasigma S.p.A., priority 2014, published 2025)
≈ marks a conversion by molar mass, not a printed value. One block for each molecule: values may come before it.

Assays:
[1] = Dog bioavailability study; format: in vivo, beagle dogs; details: for Cmax / Tmax / Exposure AUC: target dose 10 mg/kg
Experimental: The dogs are not fasted before dosing, and have free access to water. Every day of the treatment, a half food ration is provided after the T0 blood sampling, 8 to 17 min before treatment, and the second half ration is given just after dosing or 1 h after treatment for period 2. A 3 days washout period is ensured between treatments.
The capsule composition is described in Table XX below.
The capsules are administered orally with water (5-10 mL), to provide good oesophageal transit. Each animal is checked at least once daily.
Blood is collected from the jugular vein into lithium heparinised tubes at TO (before food administration) and then at 1 h, 2 h, 4 h, 6 h, 8 h, 10 h, and 24 h post treatment.
Plasma is then obtained from blood by centrifugation (2500 g for 10 min at 4° C.), and stored at −20° C. until analysis.
After vortex mixing and centrifugation at 4° C., the supernatants are diluted with a 0.5 volume of HPLC grade water in a midi-eppendorf 96-well plate. The plate is sealed and shaken to ensure sample homogeneity prior to analysis.
Pharmacokinetic analysis is performed using WinNonlin™ software version 5.3, using concentrations from individual animals. Non-compartmental analysis is applied to determine the PK parameters (Cmax, Tmax, AUC0-last, t1/2, etc. . . . )
Concentrations below the limit of detection are set to zero for descriptive statistics and PK parameter calculations.

[2] = Solubility study in different solvents (UV-spectrometry); format: physicochemical; details: at least 24 h
Experimental: The supersaturated solution is then filtered and the concentration of product in the filtrate is determined using UV-spectrometry.
In water, the influence of the pH is adjusted to pH 2, pH 7, and pH 9. HCl and NaOH are used to adjust the pH.

[3] = Dissolution in solvents (salt Protocol 1); format: physicochemical; details: DCM, up to 20 relative volumes, agitated at 50° C.; not in the other nine solvents
Source text: The solvent is selected from isopropanol, ethanol, methanol, isopropyl acetate, THF, TBME, acetone, methyl ethyl ketone, DCM, and MeCN.

GVS analysis = format: physicochemical
Source text: The evolution of the material is followed via XPRD at various time points.

[4] = Thermodynamic aqueous solubility by HPLC; format: physicochemical; details: salt obtained by Protocol 4
[5] = Complementary salt analysis (XRPD, stability evaluation); format: physicochemical; details: salt obtained by Protocol 4
[6] = single oral administration, 1 × 100 mg capsule
[7] = single oral administration, 4 × 25 mg capsules
[8] = oral capsules, on average at the 2 capsule strengths

Cmax [1, 6]: 0.797 µg/mL
Tmax [1, 6]: 8.0 h
Cmax [1, 7]: 0.894 µg/mL
Exposure AUC [1, 7]: 10.4 µg·h/mL
Tmax [1, 7]: 6.0 h
Solubility ([2]; 0.005M HCl, 20° C.): 0.252 mg/mL (≈ 592 µM)
Solubility ([2]; HP-β-CD 40% pH3, 20° C.): 0.550 mg/mL (≈ 1290 µM)
dissolution in solvent [3]: almost full dissolution
Compound: O=C(Nc1nc2cccc(-c3ccc(CN4CCS(=O)(=O)CC4)cc3)n2n1)C1CC1 [Compound 1, cyclopropanecarboxylic acid {5-[4-(1,1-dioxo-thiomorpholin-4-ylmethyl)-phenyl]-[1,2,4]triazolo[1,5-a]pyridin-2-yl}-amide]

in vivo exposure compared with Compound 1 [1, 8]: improved exposure
rate of absorption compared with Compound 1 [1, 8]: more rapidly absorbed
Cmax [1, 6]: 2.63 µg/mL
Exposure AUC [1, 6]: 21.7 µg·h/mL
Tmax [1, 6]: 2.0 h
Cmax [1, 7]: 3.05 µg/mL
Exposure AUC [1, 7]: 33.6 µg·h/mL
Tmax [1, 7]: 2.0 h
T1/2 ([1]; single oral administration, one range across both forms and both capsule strengths): Range 4.43-8.96 h
Solubility ([2]; 0.005M HCl, 20° C.): 3.10 mg/mL
Solubility ([2]; 0.01M HCl + 2.0% Tween 80, 20° C.): 2.79 mg/mL
Solubility ([2]; 0.01M HCl, 20° C.): 2.34 mg/mL
Solubility ([2]; Acetone, 20° C.): 0.415 mg/mL
Solubility ([2]; Acetonitrile, 20° C.): 7.36 mg/mL
Solubility ([2]; Acetonitrile/water (1/1), 20° C.): 25.6 mg/mL
Solubility ([2]; Acetonitrile/water (4/1), 20° C.): 7.81 mg/mL
Solubility ([2]; Dichloromethane, 20° C.): 0.388 mg/mL
Solubility ([2]; Ethanol, 20° C.): 0.764 mg/mL
Solubility ([2]; HP-β-CD 40% pH2, 20° C.): 7.88 mg/mL
Solubility ([2]; HP-β-CD 40% pH3, 20° C.): 9.33 mg/mL
Solubility ([2]; HP-β-CD 40% pH4, 20° C.): 2.79 mg/mL
Solubility ([2]; Methanol, 20° C.): 0.743 mg/mL
Solubility ([2]; PEG400, 20° C.): 36.6 mg/mL
Solubility ([2]; Propanol, 20° C.): 0.663 mg/mL
Solubility ([2]; Propylene glycol, 20° C.): 11.7 mg/mL
Solubility ([2]; Tetrahydrofuran, 20° C.): 0.208 mg/mL
Solubility ([2]; Water (purified), 20° C.): 3.17 mg/mL
Solubility ([2]; Water pH2, 20° C.): 8.05 mg/mL
Solubility ([2]; Water pH7, 20° C.): 2.26 mg/mL
Solubility ([2]; Water pH9, 20° C.): 2.68 mg/mL
Solubility ([2]; Water/ethanol 1/1, 20° C.): 8.68 mg/mL
Solubility ([2]; t-butyl methyl ether, 20° C.): 0.0263 mg/mL
change in form at elevated RH (GVS analysis; GVS, followed by XRPD): No change in form
temperature of dehydration to Compound 1·HCl anhydrous (GVS analysis; upon heating): above 60 °C
Compound: Cl.O.O.O.O=C(Nc1nc2cccc(-c3ccc(CN4CCS(=O)(=O)CC4)cc3)n2n1)C1CC1 [Compound 1·HCl·3H2O]

aqueous solubility [4]: 1.9 mg/mL
hygroscopicity of the salt [5]: non-hygroscopic
stability of the salt ([5]; stability evaluation 1 week at 40° C./75% Relative humidity): stable
Compound: Cl.O=C(Nc1nc2cccc(-c3ccc(CN4CCS(=O)(=O)CC4)cc3)n2n1)C1CC1 [HCl salt]
